# Reference: PMC4805204, “Robust Stimulation of W1282X-CFTR Channel Activity by a Combination of Allosteric Modulators” (PLoS ONE, 2016)
# Target: T1, Δ1198-CFTR (Homo sapiens, UniProt P13569)
# T1 construct: NBD2 deletion construct; V1198 replaced with a termination codon
# Experiment: inside-out macropatch clamp of HEK-293T cells, […] curcumin, order of addition with VX-770
# Assay type: cell-based
# T1 sequence (P13569 1-1197, stated change not applied): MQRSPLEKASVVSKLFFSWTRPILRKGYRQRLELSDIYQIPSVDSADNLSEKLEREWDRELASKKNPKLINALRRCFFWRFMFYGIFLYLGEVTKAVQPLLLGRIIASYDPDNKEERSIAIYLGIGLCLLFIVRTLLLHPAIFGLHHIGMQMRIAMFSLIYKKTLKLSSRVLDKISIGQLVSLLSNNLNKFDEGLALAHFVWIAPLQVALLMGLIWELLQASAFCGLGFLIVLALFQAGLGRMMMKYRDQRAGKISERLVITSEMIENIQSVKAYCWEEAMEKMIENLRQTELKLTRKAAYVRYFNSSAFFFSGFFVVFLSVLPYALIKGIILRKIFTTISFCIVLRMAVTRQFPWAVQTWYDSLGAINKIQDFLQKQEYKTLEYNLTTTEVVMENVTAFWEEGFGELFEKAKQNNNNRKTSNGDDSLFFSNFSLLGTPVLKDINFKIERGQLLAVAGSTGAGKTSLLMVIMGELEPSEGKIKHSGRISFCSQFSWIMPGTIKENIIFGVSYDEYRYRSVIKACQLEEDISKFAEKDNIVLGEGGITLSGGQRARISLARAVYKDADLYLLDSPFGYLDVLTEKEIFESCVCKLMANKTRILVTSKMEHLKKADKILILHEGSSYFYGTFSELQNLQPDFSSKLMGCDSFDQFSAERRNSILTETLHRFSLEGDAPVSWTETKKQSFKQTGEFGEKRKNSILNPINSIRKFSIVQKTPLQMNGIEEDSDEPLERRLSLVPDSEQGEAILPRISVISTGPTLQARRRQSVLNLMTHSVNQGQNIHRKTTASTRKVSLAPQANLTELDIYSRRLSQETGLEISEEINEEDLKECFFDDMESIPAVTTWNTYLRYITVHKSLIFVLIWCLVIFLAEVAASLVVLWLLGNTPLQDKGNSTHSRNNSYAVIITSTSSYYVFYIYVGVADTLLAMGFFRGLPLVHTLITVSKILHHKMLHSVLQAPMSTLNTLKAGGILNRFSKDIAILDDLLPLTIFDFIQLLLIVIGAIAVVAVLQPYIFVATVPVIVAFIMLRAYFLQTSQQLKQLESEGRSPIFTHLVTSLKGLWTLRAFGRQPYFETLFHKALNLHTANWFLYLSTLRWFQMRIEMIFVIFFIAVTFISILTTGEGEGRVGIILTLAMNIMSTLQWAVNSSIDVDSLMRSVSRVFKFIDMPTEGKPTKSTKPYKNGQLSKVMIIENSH
compound,measurement,value
COc1cc(/C=C/C(=O)CC(=O)/C=C/c2ccc(O)c(OC)c2)ccc1O [curcumin],"inside-out macropatch clamp of HEK-293T cells, 30 uM curcumin, order of addition",Mean percent stimulation of W1282X-CFTR or Δ1198-CFTR current by each compound alone
